The source of these data is patent publication US20230000870A1, “METHODS OF TREATING CANCER IN BIOMARKER-IDENTIFIED PATIENTS WITH INHIBITORS OF CYCLIN-DEPENDENT KINASE 7 (CDK7)” (Syros Pharmaceuticals, Inc., priority 2019, published 2023).

Assay [1] has as its target T1, CDK12 (aa686-1082)/Cyclin K complex (Homo sapiens, UniProt Q9NYV4).
T1 construct: CDK12 (aa686-1082)/Cyclin K complex
As to the kind of experiment: CDK12 kinase inhibition assay (Caliper/LabChip EZ Reader). It is filed as biochemical. The conditions noted are these: CDK12 (aa686-1082)/Cyclin K 50 nM, ATP 2 mM, 3 hr at 27° C. Here is the method: (§1) Compounds of the invention were assayed for inhibition of CDK7, CDK9, CDK12, and CDK2 activity at Biortus Biosciences (Jiangyin, Jiangsu Province, P.R. of China) using kinase assays for each CDK developed with a Caliper/LabChip EZ Reader (Perkin Elmer, Waltham, Mass.).
(§2) Furthermore, the CDK9 inhibition assay used CDK9/Cyclin T1 complex (8 nM) and “5-FAM-CDK9tide” peptide substrate (2 μM, synthesized fluorophore-labeled peptide with the following sequence: 5-FAM-GSRTPMY-NH2 where 5-FAM is defined above and NH2 signifies a C-terminal amide) with 10 mM MgCl2 in the buffer composition listed above. The CDK12 inhibition assay used CDK12 (aa686-1082)/Cyclin K complex (50 nM) and “5-FAM-CDK9tide” (2 μM) as defined above, with 2 mM MgCl2 in the buffer composition above. Additionally, the CDK2 inhibition assay used CDK2/Cyclin E1 complex (0.5 nM) and “5-FAM-CDK7tide” (2 μM) as defined above, with 2 mM MgCl2 in the buffer composition listed above.
(§3) The incubation period at 27° C. for each CDK inhibition assay was chosen such that the fraction of phosphorylated peptide product produced in each assay, relative to the total peptide concentration, was approximately 20% (±5%) for the uninhibited kinase (35 min. for CDK7, 35 min. for CDK2, 3 hr. for CDK12, 15 min. for CDK9).

The subject of assay [2] is A673 cells. The experiment in a line: Inhibition of proliferation of A673 cells (CyQUANT, 72 hour). It is filed as cell-based, human. The conditions noted are these: read-out: Inhibition of Proliferation of A673 Cells (calculated IC50). Here is the method: A673 Cells: A673 cells are a cell line derived from human muscle Ewing's sarcoma. Representative compounds of the invention were tested at different concentrations (from 4 μM to […]; 0.5 log serial dilutions) for their ability to inhibit the proliferation of A673 cells. Known CDK inhibitors dinaciclib or N-((1S,3R)-3-((5-chloro-4-(1H-indol-3-yl)pyrimidin-2-yl)amino)cyclohexyl)-5-((E)-4-(dimethylamino)but-2-enamido)picolinamide and triptolide were used as positive controls. Cells were grown in Dulbecco's Modified Eagle's Medium, +10% FBS+1 mM Sodium Pyruvate. The cells were cultured at 37° C. in a humidified chamber in the presence of 5% CO2. Proliferation assays were conducted over a 72 hour time period. CyQUANT® (Life Technologies, Chicago, Ill. USA) was used to assess the anti-proliferative effects of the compounds following manufacturer's directions and utilizing the reagents supplied with the CyQUANT® kit.

Assay [3] has as its target CDK7/Cyclin H/MAT1 complex (Homo sapiens, UniProt P50613). The experiment in a line: CDK7 kinase inhibition assay (Caliper/LabChip EZ Reader). It is filed as biochemical. The conditions noted are these: CDK7/Cyclin H/MAT1 6 nM, ATP 2 mM, 35 min at 27° C. As for the experimental part: as §1, §2, §3
In assay [4] the target is CDK9/Cyclin T1 complex (Homo sapiens, UniProt P50750). As to the kind of experiment: CDK9 kinase inhibition assay (Caliper/LabChip EZ Reader). The conditions noted are these: CDK9/Cyclin T1 8 nM, ATP 2 mM, 15 min at 27° C. It is filed as biochemical. Here is the method:
as §1, §2, §3

In assay [5] the target is CDK2/Cyclin E1 complex (Homo sapiens, UniProt P24941). As to the kind of experiment: CDK2 kinase inhibition assay (Caliper/LabChip EZ Reader). It is filed as biochemical. The conditions noted are these: CDK2/Cyclin E1 0.5 nM, ATP 2 mM, 35 min at 27° C. Here is the method:
as §1, §2, §3

T1 sequence (Q9NYV4 686-1082): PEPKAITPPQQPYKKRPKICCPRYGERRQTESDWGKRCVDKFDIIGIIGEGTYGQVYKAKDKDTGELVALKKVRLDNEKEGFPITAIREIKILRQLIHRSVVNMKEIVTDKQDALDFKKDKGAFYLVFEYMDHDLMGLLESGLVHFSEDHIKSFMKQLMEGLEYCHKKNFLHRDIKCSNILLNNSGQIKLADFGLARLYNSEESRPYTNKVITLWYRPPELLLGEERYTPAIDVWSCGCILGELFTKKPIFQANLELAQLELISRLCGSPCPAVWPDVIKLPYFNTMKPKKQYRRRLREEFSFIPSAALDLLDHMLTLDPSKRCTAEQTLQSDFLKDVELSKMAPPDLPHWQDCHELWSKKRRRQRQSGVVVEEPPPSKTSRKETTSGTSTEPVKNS
T1 sequence (O75909 whole entry partner, the tested form may be a part): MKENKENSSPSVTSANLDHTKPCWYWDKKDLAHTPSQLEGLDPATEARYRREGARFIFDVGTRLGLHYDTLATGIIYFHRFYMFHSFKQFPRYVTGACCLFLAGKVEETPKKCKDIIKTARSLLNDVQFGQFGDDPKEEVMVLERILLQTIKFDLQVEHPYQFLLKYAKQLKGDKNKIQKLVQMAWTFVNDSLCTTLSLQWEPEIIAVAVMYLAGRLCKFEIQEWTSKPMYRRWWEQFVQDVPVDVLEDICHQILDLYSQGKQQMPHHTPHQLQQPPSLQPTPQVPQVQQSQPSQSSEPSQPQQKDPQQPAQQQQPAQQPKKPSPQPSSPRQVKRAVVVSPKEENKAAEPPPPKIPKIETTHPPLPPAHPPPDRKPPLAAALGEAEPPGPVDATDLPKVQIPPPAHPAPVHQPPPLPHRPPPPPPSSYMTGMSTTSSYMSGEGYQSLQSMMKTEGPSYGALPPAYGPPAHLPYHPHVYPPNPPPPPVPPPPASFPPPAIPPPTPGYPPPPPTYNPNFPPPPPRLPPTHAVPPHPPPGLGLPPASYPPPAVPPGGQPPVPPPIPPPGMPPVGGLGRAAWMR
CDK9/Cyclin T1 complex, sequence (P50750 whole entry): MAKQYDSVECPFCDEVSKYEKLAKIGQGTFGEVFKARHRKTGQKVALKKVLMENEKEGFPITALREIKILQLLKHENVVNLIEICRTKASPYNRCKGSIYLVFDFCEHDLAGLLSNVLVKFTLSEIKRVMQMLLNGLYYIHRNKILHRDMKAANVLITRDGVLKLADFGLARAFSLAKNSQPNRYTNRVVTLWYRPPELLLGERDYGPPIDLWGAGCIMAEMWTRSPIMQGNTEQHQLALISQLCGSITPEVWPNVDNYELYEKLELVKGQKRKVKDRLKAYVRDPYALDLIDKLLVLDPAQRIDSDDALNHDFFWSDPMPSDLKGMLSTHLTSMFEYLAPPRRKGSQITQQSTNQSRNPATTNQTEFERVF
CDK9/Cyclin T1 complex, sequence (O60563 whole entry partner): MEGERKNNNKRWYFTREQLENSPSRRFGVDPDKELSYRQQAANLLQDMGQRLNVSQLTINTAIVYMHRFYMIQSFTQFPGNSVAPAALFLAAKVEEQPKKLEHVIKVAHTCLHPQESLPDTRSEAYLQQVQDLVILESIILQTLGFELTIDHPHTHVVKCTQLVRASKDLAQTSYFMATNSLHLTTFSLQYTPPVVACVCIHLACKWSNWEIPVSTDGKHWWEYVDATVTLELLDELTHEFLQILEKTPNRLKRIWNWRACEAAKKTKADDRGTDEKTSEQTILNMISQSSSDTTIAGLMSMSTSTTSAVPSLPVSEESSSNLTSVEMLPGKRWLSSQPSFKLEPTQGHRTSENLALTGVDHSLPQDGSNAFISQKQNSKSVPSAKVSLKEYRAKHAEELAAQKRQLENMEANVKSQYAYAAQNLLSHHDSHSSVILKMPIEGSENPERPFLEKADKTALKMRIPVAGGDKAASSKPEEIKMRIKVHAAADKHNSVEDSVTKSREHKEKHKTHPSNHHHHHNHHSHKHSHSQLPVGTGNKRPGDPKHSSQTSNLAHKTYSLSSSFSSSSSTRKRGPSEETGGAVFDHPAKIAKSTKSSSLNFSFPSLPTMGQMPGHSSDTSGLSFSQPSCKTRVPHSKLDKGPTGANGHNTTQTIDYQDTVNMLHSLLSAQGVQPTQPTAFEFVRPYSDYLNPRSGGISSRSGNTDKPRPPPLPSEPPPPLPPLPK
CDK7/Cyclin H/MAT1 complex, sequence (P50613 whole entry): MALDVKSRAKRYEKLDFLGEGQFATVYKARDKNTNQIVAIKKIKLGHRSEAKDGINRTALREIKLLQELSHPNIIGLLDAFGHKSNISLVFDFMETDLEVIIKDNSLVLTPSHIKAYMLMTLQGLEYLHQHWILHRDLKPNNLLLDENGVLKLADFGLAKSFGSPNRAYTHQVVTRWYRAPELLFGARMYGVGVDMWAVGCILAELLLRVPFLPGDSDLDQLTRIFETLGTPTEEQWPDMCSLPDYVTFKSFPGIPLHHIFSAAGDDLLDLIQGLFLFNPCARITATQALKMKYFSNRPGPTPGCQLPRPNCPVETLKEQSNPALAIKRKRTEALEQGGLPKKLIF
CDK7/Cyclin H/MAT1 complex, sequence (P51946 whole entry partner): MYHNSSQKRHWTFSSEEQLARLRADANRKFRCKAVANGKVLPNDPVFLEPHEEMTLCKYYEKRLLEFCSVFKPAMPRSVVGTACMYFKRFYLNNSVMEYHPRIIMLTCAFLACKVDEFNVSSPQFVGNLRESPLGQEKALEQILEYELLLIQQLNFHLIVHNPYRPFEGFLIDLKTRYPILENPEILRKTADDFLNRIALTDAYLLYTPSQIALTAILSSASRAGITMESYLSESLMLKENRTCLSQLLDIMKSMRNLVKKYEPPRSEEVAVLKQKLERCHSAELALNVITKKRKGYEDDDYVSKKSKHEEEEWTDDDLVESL
CDK7/Cyclin H/MAT1 complex, sequence (P51948 whole entry partner): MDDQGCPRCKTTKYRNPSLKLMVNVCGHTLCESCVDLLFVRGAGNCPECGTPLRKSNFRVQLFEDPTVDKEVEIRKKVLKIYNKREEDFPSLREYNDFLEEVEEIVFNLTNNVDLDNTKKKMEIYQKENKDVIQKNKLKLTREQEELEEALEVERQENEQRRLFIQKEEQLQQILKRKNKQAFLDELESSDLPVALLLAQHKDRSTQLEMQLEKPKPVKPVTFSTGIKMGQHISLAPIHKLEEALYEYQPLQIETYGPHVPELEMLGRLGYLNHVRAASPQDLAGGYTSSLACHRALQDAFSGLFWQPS

On to `Fc1cccc2c(-c3nc(NC4CCCNC4)ncc3Cl)n[nH]c12` (centres unmarked) [Compound 155], for which the IC50 in assay [1] is 200 to 5000 nM; in assay [2], below 20 nM; in assay [3], 20 to 200 nM; in assay [4], 200 to 5000 nM; in assay [5] it was 200 to 5000 nM.
Regarding `Fc1cccc2c(-c3nc(N[C@H]4CCCNC4)ncc3C(F)(F)F)n[nH]c12` [Compound 156], the IC50 in assay [1] is 200 to 5000 nM; in assay [2], below 20 nM; in assay [3] it was below 20 nM; in assay [4], 200 to 5000 nM; in assay [5], 200 to 5000 nM.
As for `N#Cc1cnc(NC2CCCNC2)nc1-c1c[nH]c2ccccc12` (centres unmarked) [Compound 157], the IC50 was 200 to 5000 nM in assay [1]; below 20 nM in assay [2]; below 20 nM in assay [3]; 200 to 5000 nM in assay [4]; 200 to 5000 nM in assay [5].
With `FC(F)(F)Cc1cnc(N[C@H]2CCCNC2)nc1-c1c[nH]c2ccccc12` [Compound 158], the IC50 in assay [1] was 200 to 5000 nM; in assay [2], 20 to 200 nM; in assay [3], 200 to 5000 nM; in assay [4] it was at least 5000 nM; in assay [5], at least 5000 nM.
Consider `FC(F)(F)c1cnc(N[C@H]2CCCNC2)nc1-c1c[nH]c2ccc(Cl)cc12` [Compound 160], for which the IC50 is 200 to 5000 nM in assay [1]; below 20 nM in assay [2]; below 20 nM in assay [3]; 200 to 5000 nM in assay [4]; 200 to 5000 nM in assay [5].
For the molecule `FC(F)(F)c1cnc(NC2CCCNC2)nc1-c1c[nH]c2c(Cl)cccc12` (centres unmarked) [Compound 167], the IC50 in assay [1] is 20 to 200 nM; in assay [2] it was below 20 nM; in assay [3] it was below 20 nM; in assay [4] it was 200 to 5000 nM; in assay [5], 200 to 5000 nM.
On to `CCOP(=O)(OCC)c1cccc2c(-c3nc(NC4CCCNC4)ncc3C(F)(F)F)c[nH]c12` (centres unmarked) [Compound 168], for which the IC50 is at least 5000 nM in assay [1]; 200 to 5000 nM in assay [2]; 200 to 5000 nM in assay [3]; at least 5000 nM in assay [4]; at least 5000 nM in assay [5].
Regarding `N#Cc1ccc2[nH]cc(-c3nc(NC4CCCNC4)ncc3C(F)(F)F)c2c1` (centres unmarked) [Compound 169], the IC50 is 200 to 5000 nM in assay [1]; 200 to 5000 nM in assay [2]; 20 to 200 nM in assay [3]; at least 5000 nM in assay [4]; at least 5000 nM in assay [5].
Turning to `Cc1nn(C)cc1-c1cccc2c(-c3nc(NC4CCCNC4)ncc3C(F)(F)F)c[nH]c12` (centres unmarked) [Compound 171], the IC50 in assay [1] was 200 to 5000 nM; in assay [2], below 20 nM; in assay [3] it was below 20 nM; in assay [4], 200 to 5000 nM; in assay [5], 200 to 5000 nM.
Consider `Cc1cn(-c2cccc3c(-c4nc(NC5CCCNC5)ncc4C(F)(F)F)c[nH]c23)cn1` (centres unmarked) [Compound 172], for which the IC50 in assay [1] was 200 to 5000 nM; in assay [2], below 20 nM; in assay [3], below 20 nM; in assay [4], 200 to 5000 nM; in assay [5], 200 to 5000 nM.
For `Clc1cnc(N[C@H]2CCCNC2)nc1-c1n[nH]c2ccccc12` [Compound 174], the IC50 in assay [1] is 200 to 5000 nM; in assay [2], 20 to 200 nM; in assay [3] it was below 20 nM; in assay [4], 200 to 5000 nM; in assay [5], 200 to 5000 nM.
Regarding `FC(F)(F)c1cnc(NC2CCCNC2)nc1-c1c[nH]c2ccc(-c3cn[nH]c3)cc12` (centres unmarked) [Compound 177], the IC50 in assay [1] is 200 to 5000 nM; in assay [2], 200 to 5000 nM; in assay [3], 20 to 200 nM; in assay [4], at least 5000 nM; in assay [5], at least 5000 nM.
With `Cn1cc(-c2ccc3[nH]cc(-c4nc(NC5CCCNC5)ncc4C(F)(F)F)c3c2)cn1` (centres unmarked) [Compound 178], the IC50 was 200 to 5000 nM in assay [1]; 200 to 5000 nM in assay [2]; 20 to 200 nM in assay [3]; at least 5000 nM in assay [4]; at least 5000 nM in assay [5].
`CCOP(C)(=O)c1cccc2c(-c3nc(NC4CCCNC4)ncc3C(F)(F)F)c[nH]c12` (centres unmarked) [Compound 179]: the IC50 is 200 to 5000 nM in assay [1]; below 20 nM in assay [2]; below 20 nM in assay [3]; 200 to 5000 nM in assay [4]; 200 to 5000 nM in assay [5].
On to `Cn1cc(-c2ccc3c(-c4nc(NC5CCCNC5)ncc4C(F)(F)F)c[nH]c3c2)cn1` (centres unmarked) [Compound 181], for which the IC50 in assay [1] was 200 to 5000 nM; in assay [2], below 20 nM; in assay [3], below 20 nM; in assay [4], 200 to 5000 nM; in assay [5] it was 200 to 5000 nM.
As for `CC1CNCC(Nc2ncc(Cl)c(-c3c[nH]c4ccccc34)n2)C1` (centres unmarked) [Compound 182], the IC50 was 200 to 5000 nM in assay [1]; 20 to 200 nM in assay [2]; 20 to 200 nM in assay [3]; 200 to 5000 nM in assay [4]; at least 5000 nM in assay [5].
For `CCOP(=O)(OCC)c1ccc2[nH]cc(-c3nc(NC4CCCNC4)ncc3C(F)(F)F)c2c1` (centres unmarked) [Compound 183], the IC50 in assay [1] is at least 5000 nM; in assay [2] it was 200 to 5000 nM; in assay [3], 20 to 200 nM; in assay [4] it was 200 to 5000 nM; in assay [5] it was 200 to 5000 nM.
In the case of `Fc1cc2[nH]cc(-c3nc(NC4CCCNC4)ncc3C(F)(F)F)c2cc1F` (centres unmarked) [Compound 184], the IC50 in assay [1] is 20 to 200 nM; in assay [2] it was below 20 nM; in assay [3], below 20 nM; in assay [4], 20 to 200 nM; in assay [5], 20 to 200 nM.
In the case of `CNC(=O)c1ccc2c(-c3nc(NC4CCCNC4)ncc3C(F)(F)F)c[nH]c2c1` (centres unmarked) [Compound 186], the IC50 is 200 to 5000 nM in assay [1]; 20 to 200 nM in assay [2]; below 20 nM in assay [3]; 200 to 5000 nM in assay [4]; 200 to 5000 nM in assay [5].
With `CCOP(=O)(OCC)c1ccc2c(-c3nc(NC4CCCNC4)ncc3C(F)(F)F)c[nH]c2c1` (centres unmarked) [Compound 187], the IC50 in assay [1] was 200 to 5000 nM; in assay [2], 20 to 200 nM; in assay [3], 20 to 200 nM; in assay [4], at least 5000 nM; in assay [5], at least 5000 nM.
As to `FC(F)(F)c1cnc(NC2CCCNC2)nc1-c1c[nH]c2cc(-c3cn[nH]c3)ccc12` (centres unmarked) [Compound 188], the IC50 in assay [1] was 200 to 5000 nM; in assay [2], 20 to 200 nM; in assay [3], below 20 nM; in assay [4] it was 200 to 5000 nM; in assay [5], 200 to 5000 nM.
In the case of `COc1cnc(N[C@H]2CCCNC2)nc1-c1c[nH]c2ccccc12` [Compound 189], the IC50 in assay [1] is at least 5000 nM; in assay [2] it was 200 to 5000 nM; in assay [3], 200 to 5000 nM; in assay [4], at least 5000 nM; in assay [5], at least 5000 nM.
On to `CC(C)(O)CCc1cccc2c(-c3nc(NC4CCCNC4)ncc3C(F)(F)F)c[nH]c12` (centres unmarked) [Compound 191], for which the IC50 in assay [1] is 200 to 5000 nM; in assay [2], below 20 nM; in assay [3], below 20 nM; in assay [4], 200 to 5000 nM; in assay [5] it was 200 to 5000 nM.
With `C#Cc1cnc(NC2CCCNC2)nc1-c1c[nH]c2ccccc12` (centres unmarked) [Compound 194], the IC50 in assay [1] is 200 to 5000 nM; in assay [2] it was below 20 nM; in assay [3], below 20 nM; in assay [4] it was 200 to 5000 nM; in assay [5] it was 200 to 5000 nM.
Consider `C#Cc1cnc(N[C@H]2CCCNC2)nc1-c1cn(C)c2ccccc12` [Compound 195], for which the IC50 in assay [1] was at least 5000 nM; in assay [2], 20 to 200 nM; in assay [3], 200 to 5000 nM; in assay [4], at least 5000 nM; in assay [5], at least 5000 nM.
